Results published in US11596639B2, “Substituted indole Mcl-1 inhibitors” (Vanderbilt University, priority 2016, dated 2023).
pKi: −log10 of the molar value.

Columns and labels:
[1] = system: H929 human cancer cell lines; assay: Cellular viability / proliferation (Cell TiterGlo, 72 h); assay type: cell-based; settings: Homo sapiens, NCI-H929, 72 h, read-out: GI50 on cellular proliferation of H929 human cancer cell lines, H929 cells, 72 h, Cell TiterGlo, 10% FBS
Outline: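 1,000 cells/well, 10% FBS medium; compound added at 24 h, 2-fold dilutions from 50 μM top, DMSO <1% final. 72 h exposure, CellTiterGlo 30 min RT dark, luminescence read. IC50 by 4-parameter fit.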

[2] = target: Mcl-1 (Homo sapiens (Human), UniProt Q07820); assay: Fluorescence polarization anisotropy (FPA) competition assay, FITC-Bak or FITC-Bim BH3 peptide; assay type: binding; settings: read-out: Ki for Inhibition of Mcl-1 by FPA assay
Sequence of Mcl-1 (Q07820 172-327): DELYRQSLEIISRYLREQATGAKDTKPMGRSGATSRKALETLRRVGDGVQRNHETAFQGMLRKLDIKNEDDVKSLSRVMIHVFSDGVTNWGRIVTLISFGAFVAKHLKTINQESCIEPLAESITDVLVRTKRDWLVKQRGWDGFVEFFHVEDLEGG

Compound	GI50 [1] [µM]	pKi [2]
Cc1cc(OCCCc2c3n(c4c(-c5c(C)nn(C)c5C)c(Cl)ccc24)[C@H](C)CN(c2cc(C(C)C)cc4cc(C(=O)O)n(Cc5ccccn5)c24)C3=O)cc(C)c1Cl [Example 359, (R)-7-(7-Chloro-10-(3-(4-chloro-3,5-dimethylphenoxy)propyl)-4-methyl-1-oxo-6-(1,3,5-trimethyl-1H-pyrazol-4-yl)-3,4-dihydropyrazino[1,2-a]indol-2(1H)-yl)-5-isopropyl-1-(pyridin-2-ylmethyl)-1H-indole-2-carboxylic acid]	0.29	8.85
Cc1cc(OCCCc2c3n(c4c(-c5c(C)nn(C)c5C)c(Cl)ccc24)[C@H](C)CN(c2cn(C)c4ccc(-c5ccccn5)cc24)C3=O)cc(C)c1Cl [Example 389, (R)-7-Chloro-10-(3-(4-chloro-3,5-dimethylphenoxy)propyl)-4-methyl-2-(1-methyl-5-(pyridin-2-yl)-1H-indol-3-yl)-6-(1,3,5-trimethyl-1H-pyrazol-4-yl)-3,4-dihydropyrazino[1,2-a]indol-1(2H)-one]	1.5	> 9.00
Cc1cc(OCCCc2c3n(c4c(-c5c(C)nn(C)c5C)c(Cl)ccc24)[C@H](C)CN(c2ccc(Cl)c4c(C(=O)O)cn(C)c24)C3=O)cc(C)c1Cl [Example 435, (R)-4-Chloro-7-(7-chloro-10-(3-(4-chloro-3,5-dimethylphenoxy)propyl)-4-methyl-1-oxo-6-(1,3,5-trimethyl-1H-pyrazol-4-yl)-3,4-dihydropyrazino[1,2-a]indol-2(1H)-yl)-1-methyl-1H-indole-3-carboxylic acid]	0.57	> 9.00
COc1cc(N2C[C@@H](C)n3c(c(CCCOc4cc(C)c(Cl)c(C)c4)c4ccc(Cl)c(-c5c(C)nn(C)c5C)c43)C2=O)c2c(c1)cc(C(=O)O)n2C [Example 342, (R)-7-(7-Chloro-10-(3-(4-chloro-3,5-dimethylphenoxy)propyl)-4-methyl-1-oxo-6-(1,3,5-trimethyl-1H-pyrazol-4-yl)-3,4-dihydropyrazino[1,2-a]indol-2(1H)-yl)-5-methoxy-1-methyl-1H-indole-2-carboxylic acid]	0.23	> 9.00
Cc1cc(OCCCc2c3n(c4c(-c5c(C)nn(C)c5C)c(Cl)ccc24)[C@H](C)CN(c2cccc4cc(C(=O)O)n(Cc5ccncc5)c24)C3=O)cc(C)c1Cl [Example 248, 7-[(4R)-7-chloro-10-[3-(4-chloro-3,5-dimethyl-phenoxy)propyl]-4-methyl-1-oxo-6-(1,3,5-trimethylpyrazol-4-yl)-3,4-dihydropyrazino[1,2-a]indol-2-yl]-1-(4-pyridylmethyl)indole-2-carboxylic acid]	0.57	> 9.00
Cc1cc(OCCCc2c3n(c4c(-c5c(C)nn(C)c5C)c(Cl)ccc24)[C@H](C)CN(c2cn(C)c4ccc(C(=O)N5CCCC5)cc24)C3=O)cc(C)c1Cl [Example 290, (4R)-7-chloro-10-[3-(4-chloro-3,5-dimethyl-phenoxy)propyl]-4-methyl-2-[1-methyl-5-(pyrrolidine-1-carbonyl)indol-3-yl]-6-(1,3,5-trimethylpyrazol-4-yl)-3,4-dihydropyrazino[1,2-a]indol-1-one]	5.3	7.92
Cc1cnc(-c2ccc3c(c2)c(N2C[C@@H](C)n4c(c(CCCOc5cc(C)c(Cl)c(C)c5)c5ccc(Cl)c(-c6c(C)nn(C)c6C)c54)C2=O)cn3C)nc1 [Example 450, (R)-7-Chloro-10-(3-(4-chloro-3,5-dimethylphenoxy)propyl)-4-methyl-2-(1-methyl-5-(5-methylpyrimidin-2-yl)-1H-indol-3-yl)-6-(1,3,5-trimethyl-1H-pyrazol-4-yl)-3,4-dihydropyrazino[1,2-a]indol-1(2H)-one]	1.1	8.66
Cc1cc(OCCCc2c3n(c4c(-c5c(C)nn(C)c5C)c(Cl)ccc24)[C@H](C)CN(c2cn(C)c4ccc(-c5nnc(C6CC6)o5)cc24)C3=O)cc(C)c1Cl [Example 423, (R)-7-Chloro-10-(3-(4-chloro-3,5-dimethylphenoxy)propyl)-2-(5-(5-cyclopropyl-1,3,4-oxadiazol-2-yl)-1-methyl-1H-indol-3-yl)-4-methyl-6-(1,3,5-trimethyl-1H-pyrazol-4-yl)-3,4-dihydropyrazino[1,2-a]indol-1(2H)-one]	1.7	8.64
Cc1cc(OCCCc2c3n(c4c(-c5c(C)ncnc5C)c(Cl)ccc24)CCCN(c2ccnc4ccc(C(=O)O)cc24)C3=O)cc(C)c1Cl [Example 220, 4-[8-Chloro-11-[3-(4-chloro-3,5-dimethyl-phenoxy)propyl]-7-(4,6-dimethylpyrimidin-5-yl)-1-oxo-4,5-dihydro-3H-[1,4]diazepino[1,2-a]indol-2-yl]quinoline-6-carboxylic acid]	2	> 9.00
Cc1cc(OCCCc2c3n(c4c(-c5c(C)nn(C)c5C)c(Cl)ccc24)[C@H](C)CN(c2cn(C)c4c(-c5nnn[nH]5)cccc24)C3=O)cc(C)c1Cl [Example 258, (R)-7-Chloro-10-(3-(4-chloro-3,5-dimethylphenoxy)propyl)-4-methyl-2-(1-methyl-7-(1H-tetrazol-5-yl)-1H-indol-3-yl)-6-(1,3,5-trimethyl-1H-pyrazol-4-yl)-3,4-dihydropyrazino[1,2-a]indol-1(2H)-one]	3.6	> 9.00
Cc1cc(OCCCc2c3n(c4c(-c5c(C)ncnc5C)c(Cl)ccc24)CCCN(c2cc(C(=O)O)c4cnn(C)c4c2)C3=O)cc(C)c1Cl [Example 155, 6-[8-Chloro-11-[3-(4-chloro-3,5-dimethyl-phenoxy)propyl]-7-(4,6-dimethylpyrimidin-5-yl)-1-oxo-4,5-dihydro-3H-[1,4]diazepino[1,2-a]indol-2-yl]-1-methyl-indazole-4-carboxylic acid]	1.4	> 9.00
Cc1cc(OCCCc2c3n(c4c(-c5c(C)n[nH]c5C)c(Cl)ccc24)[C@H](C)CN(c2cc(C(=O)O)c4cnn(C)c4c2)C3=O)cc(C)c1Cl [Example 93, (R)-6-(7-chloro-10-(3-(4-chloro-3,5-dimethylphenoxy)propyl)-6-(3,5-dimethyl-1H-pyrazol-4-yl)-4-methyl-1-oxo-3,4-dihydropyrazino[1,2-a]indol-2(1H)-yl)-1-methyl-1H-indazole-4-carboxylic acid]	7.5	> 9.00
Cc1cc(OCCCc2c3n(c4c(-c5c(C)nc(CN6CCN(C)C(=O)C6)nc5C)c(Cl)ccc24)[C@H](C)CN(c2cn(C)c4ccc(C(=O)O)cc24)C3=O)cc(C)c1Cl [Example 432, (R)-3-(7-Chloro-10-(3-(4-chloro-3,5-dimethylphenoxy)propyl)-6-(4,6-dimethyl-2-((4-methyl-3-oxopiperazin-1-yl)methyl)pyrimidin-5-yl)-4-methyl-1-oxo-3,4-dihydropyrazino[1,2-a]indol-2(1H)-yl)-1-methyl-1H-indole-5-carboxylic acid]	0.21	> 9.00
Cc1cc(OCCCc2c3n(c4c(-c5c(C)nn(C)c5C)c(Cl)ccc24)[C@H](C)CN(c2cn(C)c4ccc(C(=O)Nc5ccncc5)cc24)C3=O)cc(C)c1Cl [Example 283, 3-[(4R)-7-chloro-10-[3-(4-chloro-3,5-dimethyl-phenoxy)propyl]-4-methyl-1-oxo-6-(1,3,5-trimethylpyrazol-4-yl)-3,4-dihydropyrazino[1,2-a]indol-2-yl]-1-methyl-N-(4-pyridyl)indole-5-carboxamide]	1.2	8.92
Cc1cc(OCCCc2c3n(c4c(-c5c(C)nn(C)c5C)c(Cl)ccc24)[C@H](C)CN(c2ccc4c(c2)cc(C(=O)O)n4C)C3=O)cc(C)c1Cl [Example 114, (R)-5-(7-Chloro-10-(3-(4-chloro-3,5-dimethylphenoxy)propyl)-4-methyl-1-oxo-6-(1,3,5-trimethyl-1H-pyrazol-4-yl)-3,4-dihydropyrazino[1,2-a]indol-2(1H)-yl)-1-methyl-1H-indole-2-carboxylic acid]	0.84	> 9.00
Cc1cc(OCCCc2c3n(c4c(-c5c(C)nn(C)c5C)c(Cl)ccc24)CCCN(c2nc(C(=O)O)n[nH]2)C3=O)cc(C)c1Cl [Example 37, 5-(8-Chloro-11-(3-(4-chloro-3,5-dimethylphenoxy)propyl)-1-oxo-7-(1,3,5-trimethyl-1H-pyrazol-4-yl)-4,5-dihydro-1H-[1,4]diazepino[1,2-a]indol-2(3H)-yl)-1H-1,2,4-triazole-3-carboxylic acid]	1.8	8.52
Cc1cc(OCCCc2c3n(c4c(-c5c(C)nn(C)c5C)c(Cl)ccc24)[C@H](C)CN(c2cc(C(=O)O)cc4[nH]ccc24)C3=O)cc(C)c1Cl [Example 100, (R)-4-(7-chloro-10-(3-(4-chloro-3,5-dimethylphenoxy)propyl)-4-methyl-1-oxo-6-(1,3,5-trimethyl-1H-pyrazol-4-yl)-3,4-dihydropyrazino[1,2-a]indol-2(1H)-yl)-1H-indole-6-carboxylic acid]	5.8	> 9.00
Cc1cc(OCCCc2c3n(c4c(-c5c(C)nn(C)c5C)c(Cl)ccc24)[C@H](C)CN(c2ccc(F)c4c(C(=O)O)cn(C)c24)C3=O)cc(C)c1Cl [Example 447, (R)-7-(7-Chloro-10-(3-(4-chloro-3,5-dimethylphenoxy)propyl)-4-methyl-1-oxo-6-(1,3,5-trimethyl-1H-pyrazol-4-yl)-3,4-dihydropyrazino[1,2-a]indol-2(1H)-yl)-4-fluoro-1-methyl-1H-indole-3-carboxylic acid]	0.34	> 9.00
Cc1cc(OCCCc2c3n(c4c(-c5c(C)nn(C)c5C)c(Cl)ccc24)[C@H](C)CN(c2cccc4c2CCC4=O)C3=O)cc(C)c1Cl [Example 203, (R)-7-Chloro-10-(3-(4-chloro-3,5-dimethylphenoxy)propyl)-4-methyl-2-(1-oxo-2,3-dihydro-1H-inden-4-yl)-6-(1,3,5-trimethyl-1H-pyrazol-4-yl)-3,4-dihydropyrazino[1,2-a]indol-1(2H)-one]	3.9	8.22
